From paper PMC8175350, “Drug repurposing screens identify chemical entities for the development of COVID-19 interventions” (Nature Communications, 2021)
Values joined by “and” are separate entries in the source; they are usually repeats but may differ in a detail not shown here. Equal values may be shown once. Read-outs that look alike come from different tables or passages of the source.

What was measured:
[1] = test system: SARS-CoV-2; assay: microbe, parasite or virus in culture; format: cell-based; conditions: for %infected: HeLa-ACE2, replicates n=1, n=2
[2] = in vitro; conditions: human
[3] = test system: HeLa-ACE2 cells; assay: Total cell count in the HeLa-ACE2 TOA assay; format: cell-based; conditions: Homo sapiens
Source text: Supplement 41467_2021_23328_MOESM3_ESM.xlsx, sheet "Table S1" | column: HeLa-ACE2 TOA cell count

[4] = test system: HeLa-ACE2 cells; assay: cells; conditions: Homo sapiens, HeLa-ACE2, read-out: HeLa-ACE2 cell count EC50 GeoMean
[5] = test system: Calu-3 cells
[6] = test system: SARS-CoV-2; assay: microbe, parasite or virus in culture; format: cell-based; conditions: for TOA: HeLa-ACE2, replicates n=1
[7] = test system: SARS-CoV-2; format: cell-based; conditions: 72 hpi
[8] = cited from earlier work
[9] = test system: SARS-CoV-2; assay: microbe, parasite or virus in culture; format: cell-based; conditions: for %infected: Calu-3, replicates n=1, n=2
[10] = test system: Calu-3 cells; assay: cells; conditions: Homo sapiens
[11] = test system: HeLa-ACE2 cells; assay: Uninfected HeLa-ACE2 24 h live/dead cytotoxicity counter screen; format: cell-based, human; conditions: for cytotox: HeLa-ACE2
[12] = as above; format: cell-based, human; conditions: human, uninfected HeLa-ACE2 cells, reconfirmed hits; read-out: HeLa-ACE2 Uninf. cells CC50

O=c1nc(NO)ccn1[C@@H]1O[C@H](CO)[C@@H](O)[C@H]1O [N-hydroxycytidine]
%infected ([1]; concentration log[M] -5.01818): -95.9068% and -95.703% and -94.602% and -97.3369% and -96.6026% and -97.2941% | %infected ([1]; concentration log[M] -5.54106): -65.3775% and -59.3515% and -63.9298% and -52.8807% and -12.9328% and -65.202% | %infected ([1]; concentration log[M] -6.01818): -30.1084% and -28.1968% and -26.2247% and 6.562% and 13.7937% and -28.207% | %infected ([1]; concentration log[M] -6.42366): -20.845% and -20.4031% and 6.3056% and 22.7531% and 23.3232% and -10.0334% | %infected ([1]; concentration log[M] -6.90066): -9.321% and -9.37% and 63.7122% and 19.7824% and -5.072% and -8.1% | %infected ([1]; concentration log[M] -7.37799): -5.474% and -4.047% and 10.6164% and 29.7413% and 17.9839% and -7.442% | %infected ([1]; concentration log[M] -7.85511): -5.151% and -0.8478% and 5.043% and 11.903% and -2.081% and 8.512% | %infected ([1]; concentration log[M] -8.34746): 2.419% and 1.409% and -2.874% and 18.1053% and 10.6681% and -1.579% | Emax ([1]; Severe acute respiratory syndrome coronavirus 2, HeLa-ACE2, 24 h, curve plateau at infinite concentration, read-out: HeLa-ACE2 CoV-2 Sinf Average): 100% | EC50 ([1]; Severe acute respiratory syndrome coronavirus 2, HeLa-ACE2, reconfirmed hits, read-out: HeLa-ACE2 SARS-CoV-2 EC50): 2.07 µM | CC50 at 48 h ([2]; Calu-3 Uninf. cells CC50 (µM)): > 29.9 µM | CC50 at 48 h ([2]; Calu-3 uninfected cytotoxicity CC50 GeoMean): 29.9 µM | Emax ([3]; HeLa-ACE2, 10 h, read-out: HeLa-ACE2 TOA cell count Sinf Average): 100% | EC50 ([3]; HeLa-ACE2, read-out: HeLa-ACE2 TOA cell count EC50 GeoMean): > 9.59 µM | EC50 [4]: > 9.59 µM | uninfected Calu-3 CC50 [5]: 29.85 ×÷ 1 (n=2) μM | Calu-3 uninfected cytotoxicity Sinf Average ([5]; human, 48 h): -100% | TOA ([6]; concentration log[M] -5.01818): -88.6412 and -82.7703 and -80.6006 | TOA ([6]; concentration log[M] -5.54106): -32.1719 and -27.0134 and -25.6358 | TOA ([6]; concentration log[M] -6.01818): -19.1217 and -14.6661 and -4.943 | TOA ([6]; concentration log[M] -6.42366): 4.0678 and -1.902 and 3.9754 | TOA ([6]; concentration log[M] -6.90066): 9.161 and 4.654 and 6.517 | TOA ([6]; concentration log[M] -7.37799): 8.185 and 12.3603 and -5.097 | TOA ([6]; concentration log[M] -7.85511): -1.637 and 10.875 and -15.0843 | TOA ([6]; concentration log[M] -8.34746): 4.125 and 6.481 and 1.9398 | Emax ([6]; Severe acute respiratory syndrome coronavirus 2, HeLa-ACE2, 10 h, curve plateau at infinite concentration, read-out: HeLa-ACE2 TOA CoV-2 Sinf Average): 100% | EC50 ([6]; Severe acute respiratory syndrome coronavirus 2, HeLa-ACE2, read-out: HeLa-ACE2 TOA CoV-2 EC50 GeoMean): 4.06 µM | reduction in apical viral loads [7]: > 1 log | Approx. t1/2 ([8]; NHP, ref [45]): 1 h | Cmax ([8]; in vivo, po): 3.3 µM | %infected ([9]; concentration log[M] -5.00096): -104.882% and -104.039% and -104.073% and -87.0522% and -95.3104% and -95.1991% | %infected ([9]; concentration log[M] -5.47808): -102.424% and -94.8216% and -96.2613% and -79.6455% and -88.2245% and -78.3438% | %infected ([9]; concentration log[M] -6.08014): -48.1883% and -55.6504% and -62.6482% and -43.1506% and -54.549% and -44.7088% | %infected ([9]; concentration log[M] -6.42922): -25.3967% and -10.7735% and -12.1745% and -21.3919% and -25.2933% and -26.102% | %infected ([9]; concentration log[M] -6.90623): 2.702% and -5.189% and -14.5454% and -5.7089% and 20.5633% and -23.5818% | %infected ([9]; concentration log[M] -7.50836): 7.0582% and -3.1% and 10.044% and -11.1778% and -10.264% and 16.3735% | %infected ([9]; concentration log[M] -7.85886): -6.015% and 34.2889% and -1.001% and -2.481% and -24.9588% and 14.4808% | %infected ([9]; concentration log[M] -8.33602): 34.4513% and -7.593% and -0.3699% and -1.01% and 8.564% and 15.1555% | Emax ([9]; Severe acute respiratory syndrome coronavirus 2, Calu-3, 48 h, curve plateau at infinite concentration, read-out: Calu-3 CoV-2 Sinf Average): 102% | EC50 ([9]; Severe acute respiratory syndrome coronavirus 2, Calu-3, reconfirmed hits, read-out: Calu-3 SARS-CoV-2 EC50): 0.803 µM | Emax ([10]; Calu-3, 48 h, read-out: Calu-3 cell count Sinf Average): 100% | EC50 ([10]; Calu-3, read-out: Calu-3 cell count EC50 GeoMean): 2.3 µM | cytotox ([11]; concentration log[M] -4.40012, replicates n=1, n=2): -52.5894 and -47.3606 and -59.8571 and -45.9651 and -54.0657 and -40.7828 | cytotox ([11]; concentration log[M] -4.82681, replicates n=1, n=2): -38.4391 and -39.4796 and -38.1429 and -39.2039 and -43.0802 and -30.2326 | cytotox ([11]; concentration log[M] -5.30277, replicates n=1, n=2): -30.8534 and -12.119 and -16 and -17.6118 and -29.9408 and -19.0017 | cytotox ([11]; concentration log[M] -5.82681, replicates n=1, n=2): -4.449 and -6.9145 and -4 and -19.1385 and -7.754 and 0.2836 | cytotox ([11]; concentration log[M] -6.25414, replicates n=1, n=2): -16.849 and -13.6059 and -16.5714 and -13.1407 and -8.078 and -16.506 | cytotox ([11]; concentration log[M] -6.73049, replicates n=1, n=2): -10.2845 and 8.996 and -3.286 and -2.1265 and -9.908 and -9.472 | cytotox ([11]; concentration log[M] -7.25727, replicates n=1, n=2): 1.386 and -4.089 and -25.4286 and -12.8135 and -14.6473 and -10.7204 | cytotox ([11]; concentration log[M] -7.68403, replicates n=1, n=2): -8.534 and -5.279 and -6.286 and -2.672 and -11.8471 and 1.418 | cytotox ([11]; concentration log[M] -8.16052, replicates n=1, n=2): -5.325 and 4.535 and -3.571 and -9.869 and -22.4017 and -12.0817 | cytotox ([11]; concentration log[M] -8.59517, replicates): -2.261 and -3.197 and -3.429 and -6.707 and -1.077 and -11.9682 | HeLa-ACE2 uninfected cytotoxicity Sinf Average ([11]; curve plateau at infinite concentration): -100% | CC50 at 24 h [12]: > 37.5 µM
